In PubChem BioAssay AID248 (DTP/NCI, 2004):
Where “and” joins values, the source holds several entries; their conditions need not be identical. Equal entries are not always repeated. Inconclusive results and toxic doses are left out. Rule as the data show it: active = T/C of 150% or more; inactive = T/C below 125%.

Test system: L1210 leukemia ip in BDF1 mice, survival T/C
Assay: NCI In Vivo Anticancer Drug Screen. Data for tumor model L1210 Leukemia (intraperitoneal) in B6D2F1 (BDF1) mice
Conditions: endpoint: mean survival time, higher = longer survival
Procedure, shortened: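 In this screen, tumor-bearing mice given compound are compared to those given vehicle, and their survival values are reported as a treated-to-control quotient.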

[1] = dose: 100.0 mg/kg/injection, schedule: Q04DX002 (ip), vehicle: saline
[2] = dose: 200.0 mg/kg/injection, schedule: Q04DX002 (ip), vehicle: saline
[3] = dose: 400.0 mg/kg/injection, schedule: Q04DX002 (ip), vehicle: saline
[4] = dose: 100.0 mg/kg/injection, schedule: Q04DX003 (ip), vehicle: saline with Tween-80
[5] = dose: 200.0 mg/kg/injection, schedule: Q04DX003 (ip), vehicle: saline with Tween-80
[6] = dose: 400.0 mg/kg/injection, schedule: Q04DX003 (ip), vehicle: saline with Tween-80
[7] = dose: 12.5 mg/kg/injection, schedule: Q01DX009 (ip), vehicle: saline
[8] = dose: 25.0 mg/kg/injection, schedule: Q01DX009 (ip), vehicle: saline
[9] = dose: 25.0 mg/kg/injection, schedule: Q04DX003 (ip), vehicle: Klucel (hydroxypropylcellulose) (HPC)
[10] = dose: 50.0 mg/kg/injection, schedule: Q01DX009 (ip), vehicle: saline
[11] = dose: 50.0 mg/kg/injection, schedule: Q04DX003 (ip), vehicle: Klucel (hydroxypropylcellulose) (HPC)
[12] = dose: 100.0 mg/kg/injection, schedule: Q04DX002 (ip), vehicle: Klucel (hydroxypropylcellulose) (HPC)
[13] = dose: 200.0 mg/kg/injection, schedule: Q04DX002 (ip), vehicle: Klucel (hydroxypropylcellulose) (HPC)
[14] = dose: 400.0 mg/kg/injection, schedule: Q04DX002 (ip), vehicle: Klucel (hydroxypropylcellulose) (HPC)
[15] = dose: 100.0 mg/kg/injection, schedule: Q01DX009 (ip), vehicle: Klucel (hydroxypropylcellulose) (HPC)
[16] = dose: 200.0 mg/kg/injection, schedule: Q01DX009 (ip), vehicle: Klucel (hydroxypropylcellulose) (HPC)
[17] = dose: 400.0 mg/kg/injection, schedule: Q01DX009 (ip), vehicle: Klucel (hydroxypropylcellulose) (HPC)
[18] = dose: 100.0 mg/kg/injection, schedule: Q01DX009 (ip), vehicle: saline
[19] = dose: 100.0 mg/kg/injection, schedule: Q04DX003 (ip), vehicle: saline
[20] = dose: 200.0 mg/kg/injection, schedule: Q01DX009 (ip), vehicle: saline
[21] = dose: 200.0 mg/kg/injection, schedule: Q04DX003 (ip), vehicle: saline
[22] = dose: 400.0 mg/kg/injection, schedule: Q01DX009 (ip), vehicle: saline
[23] = dose: 400.0 mg/kg/injection, schedule: Q04DX003 (ip), vehicle: saline
[24] = dose: 100.0 mg/kg/injection, schedule: Q04DX003 (ip), vehicle: Klucel (hydroxypropylcellulose) (HPC)
[25] = dose: 50.0 mg/kg/injection, schedule: Q01DX009 (ip), vehicle: Klucel (hydroxypropylcellulose) (HPC)
[26] = dose: 100.0 mg/kg/injection, schedule: Q04DX002 (ip), vehicle: saline with Tween-80
[27] = dose: 200.0 mg/kg/injection, schedule: Q04DX002 (ip), vehicle: saline with Tween-80
[28] = dose: 400.0 mg/kg/injection, schedule: Q04DX002 (ip), vehicle: saline with Tween-80
[29] = dose: 100.0 mg/kg/injection, schedule: Q01DX001 (ip), vehicle: saline
[30] = dose: 200.0 mg/kg/injection, schedule: Q01DX001 (ip), vehicle: saline
[31] = dose: 400.0 mg/kg/injection, schedule: Q01DX001 (ip), vehicle: saline
[32] = dose: 25.0 mg/kg/injection, schedule: Q04DX003 (ip), vehicle: saline
[33] = dose: 50.0 mg/kg/injection, schedule: Q04DX003 (ip), vehicle: saline

Measured: T/C

O=[N+]([O-])c1ccccc1CN1CCCCC1
inactive: dose: 5.0 mg/kg/injection, schedule: Q01DX001 (ip), vehicle: saline 102 % of control | dose: 10.0 mg/kg/injection, schedule: Q01DX001 (ip), vehicle: saline 102 % of control | dose: 20.0 mg/kg/injection, schedule: Q01DX001 (ip), vehicle: saline 102 % of control

CC12CC3(O)OC(O1)C1(COC(=O)c4ccccc4)C3CC21OC1OC(CO)C(O)C(O)C1O (configuration not stated)
inactive: [1] 107 % of control | [2] 107 % of control | [3] 114 % of control

COc1ccc(NC(=O)Oc2ccc(Cl)c(C)c2)cc1
inactive: [4] 93 % of control | [5] 90 % of control | [6] 88 % of control

NC(N)=Nc1nc2ccccc2s1
inactive: [7] 94 % of control | [8] 100 % of control | [9] 103 % of control | [10] 96 % of control | [11] 100 % of control

C1=C(c2ccccc2)N(C2CCCC2)C(c2ccccc2)=CN1Cc1ccccc1
inactive: [12] 100 % of control | [13] 95 % of control | [14] 97 % of control

CC(=O)Nc1ccc(C(C)C)cc1
inactive: [15] 103 % of control | [16] 95 % of control | [17] 94 % of control

CC(O)(c1ccc(Br)cc1)C(c1ccccc1)c1ccccn1 (configuration not stated)
inactive: [10] 103 % of control | [18] 94 % of control | [19] 110 % of control | [20] 94 % of control | [21] 103 % of control | [22] 101 % of control | [23] 110 % of control

COC(=O)N/N=C/c1ccc(NC(C)=O)cc1
inactive: [15] 95 % of control | [16] 101 % of control | [17] 97 % of control

O=C1C2C3CC(c4ccccc43)C2N1S(=O)(=O)Cl (configuration not stated)
inactive: [12] 105 % of control | [13] 105 % of control | [14] 105 % of control

O=C1CCCN1Cl
inactive: dose: 100.0 mg/kg/injection, schedule: Q01DX001 (ip), vehicle: saline with Tween-80 96 % of control | dose: 200.0 mg/kg/injection, schedule: Q01DX001 (ip), vehicle: saline with Tween-80 96 % of control | dose: 400.0 mg/kg/injection, schedule: Q01DX001 (ip), vehicle: saline with Tween-80 96 % of control

CC(C)(NCCNC(C)(C)[P+](=O)O)[P+](=O)O
inactive: [24] 96 % of control | dose: 200.0 mg/kg/injection, schedule: Q04DX003 (ip), vehicle: Klucel (hydroxypropylcellulose) (HPC) 93 % of control | dose: 400.0 mg/kg/injection, schedule: Q04DX003 (ip), vehicle: Klucel (hydroxypropylcellulose) (HPC) 93 % of control

CCN(CC)C(C)COC(=O)c1ccc(N)cc1 (configuration not stated)
inactive: [7] 101 % of control | [8] 101 % of control | [10] 95 % of control

COc1ccc(NC(=O)Nc2ccccc2C(N)=O)cc1
inactive: [25] 93 % of control | [15] 93 % of control | [16] 96 % of control

O=C(NNC(=O)c1ccccc1O)c1ccccc1
inactive: [26] 93 % of control | [27] 93 % of control | [28] 97 % of control

OCCCCCCCCCCCC[n+]1ccccc1
inactive: dose: 87.5 mg/kg/injection, schedule: Q01DX001 (ip), vehicle: saline 105 % of control

Nc1ccc(C(=O)O)c([N+](=O)[O-])c1
inactive: [18] 102 % of control | [19] 98 % of control | [20] 100 % of control | [21] 93 % of control | [22] 100 % of control | [23] 94 % of control

CC(=O)Nc1ccc2c(c1)Cc1cc(N=Cc3ccccn3)ccc1-2
inactive: [11] 87 % of control | [24] 90 % of control

CC(C)C1C(C(N)=O)C(=O)OC1(C)C (configuration not stated)
inactive: [29] 96 % of control | [30] 98 % of control | [31] 96 % of control

OCC1OC(n2c(N3CCOCC3)nc3ccccc32)C(O)C1O (configuration not stated)
inactive: [29] 115 % of control | [30] 97 % of control | [31] 96 % of control

O=S(=O)(C1CC1)C1CC1
inactive: [26] 94 % of control | [27] 103 % of control | [28] 94 % of control

Cc1cccc2c1NC(C)C2C (configuration not stated)
inactive: [18] 102 % of control | [19] 96 % of control | [20] 98 % of control | [21] 93 % of control | [22] 98 % of control | [23] 93 % of control

O=C(Cc1cccc2ccccc12)N/N=C/c1ccccc1Cl
inactive: [15] 89 % of control and 90 % of control | [16] 92 % of control | [17] 86 % of control and 90 % of control

CNS(=O)(=O)c1c(C)cccc1CC(=O)c1ccccc1
inactive: dose: 100.0 mg/kg/injection, schedule: Q01DX001 (ip), vehicle: steriod suspending solution 96 % of control | dose: 400.0 mg/kg/injection, schedule: Q01DX001 (ip), vehicle: steriod suspending solution 94 % of control

CC(C)C1(C(C)C)OCC(CO)O1 (configuration not stated)
inactive: [8] 93 % of control | [32] 100 % of control | [10] 102 % of control | [33] 94 % of control | [18] 104 % of control | [19] 94 % of control | [20] 102 % of control | [21] 102 % of control | [22] 104 % of control | [23] 100 % of control

O=C1CCCc2ccc(Br)cc21
inactive: [4] 99 % of control | [5] 96 % of control | [6] 99 % of control

COc1ccccc1-c1cn(O)c2nc(=N)nc(N)c-2n1
inactive: [1] 97 % of control | [2] 94 % of control | [3] 111 % of control

CCC[CH2][Ge]([Cl])([Cl])[CH2]CCC
inactive: dose: 25.0 mg/kg/injection, schedule: Q01DX009 (ip), vehicle: Klucel (hydroxypropylcellulose) (HPC) 89 % of control | [9] 93 % of control | [25] 94 % of control | [11] 96 % of control | [24] 106 % of control

CCOc1ccc(-n2c(C)nc3ccccc3c2=O)cc1CNCCBr
inactive: dose: 50.0 mg/kg/injection, schedule: Q01DX001 (ip), vehicle: saline 103 % of control | [29] 111 % of control | [30] 111 % of control

Cc1nc2ccc(O)cc2cc1CBr
inactive: dose: 6.25 mg/kg/injection, schedule: Q01DX009 (ip), vehicle: saline 112 % of control | [7] 104 % of control | dose: 12.5 mg/kg/injection, schedule: Q04DX003 (ip), vehicle: saline 107 % of control | [8] 106 % of control | [32] 115 % of control | [33] 97 % of control

CC(C)C(=O)[O][Sn]([c]1ccccc1)([c]1ccccc1)[c]1ccccc1
inactive: dose: 12.5 mg/kg/injection, schedule: Q04DX002 (ip), vehicle: Klucel (hydroxypropylcellulose) (HPC) 97 % of control | dose: 25.0 mg/kg/injection, schedule: Q04DX002 (ip), vehicle: Klucel (hydroxypropylcellulose) (HPC) 93 % of control | dose: 50.0 mg/kg/injection, schedule: Q04DX002 (ip), vehicle: Klucel (hydroxypropylcellulose) (HPC) 93 % of control

CC(C)C(CN)(CCCCN1CCCCC1)c1cccc2ccccc12 (configuration not stated)
inactive: [4] 95 % of control

c1ccc(CN(CCCOc2ccccc2)Cc2ccccc2)cc1
inactive: [4] 103 % of control | [5] 103 % of control | [6] 97 % of control

Cc1ccc(NC(=O)Nc2ccccc2Cl)c(C)c1
inactive: dose: 100.0 mg/kg/injection, schedule: Q01DX001 (ip), vehicle: carboxymethylcellulose (CMC) 93 % of control | dose: 200.0 mg/kg/injection, schedule: Q01DX001 (ip), vehicle: carboxymethylcellulose (CMC) 101 % of control | dose: 400.0 mg/kg/injection, schedule: Q01DX001 (ip), vehicle: carboxymethylcellulose (CMC) 98 % of control
